The source made the active and inactive calls.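 Rule for the calls: active = EC50 under 50 µM in a live-cell viability test; inactive = the rest.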

By EC50 is commonly meant the concentration giving half of the maximal effect.

The test system of the test is HeLa proliferation, XTT absorbance. Briefly: antiproliferative effect on HeLa control cancer cells – cell-based, XTT absorbance, selectivity assay for AHD inhibitor project, dose response (AID 1794806).
Consider `NC(=O)c1ccc(-c2ccc3cc(C(=O)NCC4CCNCC4)sc3c2)cc1`, for which the EC50 is > 51 µM (inactive).

Take `NCc1ccc(-c2ccc3cc(C(=O)NCC4CCNCC4)oc3c2)cc1`: the EC50 was > 51 µM (inactive). On to `O=C(NCC1CCNCC1)c1c[nH]c2cc(-c3ccc(N4CCCC4)cc3)ccc12`, for which the EC50 is > 51 µM (inactive). Then `O=C(NCC1CCNCC1)c1c[nH]c2cc(-c3ccc(N4CCCCC4)cc3)ccc12`, with > 51 µM (inactive). Then `O=C(NCC1CCNCC1)c1cc2ccc(-c3ccc(N4CCCCC4)cc3)cc2s1`, with 50 µM. Consider `O=C(NCC1CCNCC1)c1cc2cc(-c3cn[nH]c3)ccc2[nH]1`, for which the EC50 was > 51 µM (inactive).

Take `O=C(NCC1CCNCC1)c1cc2ccc(-c3ccc(N4CCCC4)cc3)cc2s1`: the EC50 was 50 µM. Then `O=C(NCC1CCNCC1)c1cc2cc(-c3ccc(N4CCCCC4)cc3)ccc2s1`, with 25 µM. Under `O=C(NCC1CCNCC1)c1coc2cc(-c3ccc(N4CCCCC4)cc3)ccc12` stands 50 µM; under `O=C(NCC1CCNCC1)c1cc2cc(-c3ccc(N4CCCCC4)cc3)ccc2[nH]1`, > 51 µM (inactive).

These data come from PubChem BioAssay AID1794806 (Yongcheng Song lab at Baylor College of Medicine, 2022).
